Tests used:
HLA B*5401 = HLA B*5401 (Homo sapiens, UniProt P01889, A329T/C349S/D138N/D201E/E176V/E187T/E204Q/E69G/I76V/K202T/L119W/R155S/R180L/S121T/S35A/S48A/V127L/V306I/V36M/Y140L); assay type: binding
HLA B*5301 = HLA B*5301 (Homo sapiens, UniProt P01889, A329T/A93T/A95T/C349S/D201E/D98Y/E176V/E187L/E204Q/E69T/G107R/I218V/K202T/L105A/L119I/N104I/Q94N/R106L/R155S/R180L/S101N/S121R/S35A/S48A/T118I/V127L/V306I/V36M/Y140S/Y91F); assay type: binding
HLA B*1501 = HLA B*1501 (Homo sapiens, UniProt P01889, A329T/A93T/A95T/C349S/D201E/D98Y/E187L/E204Q/E69M/E70A/K202T/N87E/Q94N/R155S/R180W/S121R/S35A/S48A/V306I/V36M/Y140S/Y91S); test: biochemical; assay type: binding
HLA A*3201 = HLA A*3201 (Homo sapiens, UniProt P04439, A270S/D101S/D185E/E176V/E277Q/F133L/G103R/G107R/G231S/H175R/I121M/I218V/I322F/K168Q/L105A/L300P/L318F/M331R/P208A/P217A/Q94H/R106L/R138Q/S129P/T104I/T323A/T345S/V100E/V321M/V358M); test: biochemical; assay type: binding
HLA B*2705 = HLA B*2705 (Homo sapiens, UniProt P01889, D138H/D201E/E176V/E204Q/G107R/H137Y/K202T/N104T/N87E/Q56L/Q94K/R106L/R155S/R180L/S101D/S121N/S48T/Y140D/Y33H/Y91C); assay type: binding; conditions: positional scanning combinatorial 9-mer library; normalized to 1.0 for the best residue at each position
H-2 K^k = H-2 K^k (Mus musculus, UniProt P04223); assay type: binding
HLA A*0201 = HLA A*0201 (Homo sapiens, UniProt P04439, D140Y/D185E/D98H/E176V/E277Q/G131W/G231S/I119V/I121R/I166T/I218V/L300P/L318F/N151K/N90K/P208A/P217A/Q86G/Q94H/R138H/R169H/T345S); conditions: positional scanning combinatorial 9-mer library; normalized to 1.0 for the best residue at each position
HLA A*6802 = HLA A*6802 (Homo sapiens, UniProt P04439, A269V/D140Y/D185E/E176V/E277Q/E87N/F33Y/G231S/I121R/I166T/I218V/L180W/L300P/L318F/N151K/P208A/P217A/Q86R/R138H/R169H/S129P/T345S/V36M); assay type: binding
HLA B*3501 = HLA B*3501 (Homo sapiens, UniProt P01889, A329T/A93T/A95T/C349S/D201E/D98Y/E176V/E187L/E204Q/E69T/I218V/K202T/L119I/Q94N/R155S/R180L/S121R/S35A/S48A/T118I/V127L/V306I/V36M/Y140S/Y91F); assay type: binding
HLA B*1503 = HLA B*1503 (Homo sapiens, UniProt P01889, A329T/A93T/A95T/C349S/D201E/D98Y/E187L/E204Q/K202T/N87E/Q94N/R155S/R180L/S121R/S35A/V306I/V36M/Y140S/Y91S); test: biochemical; assay type: binding
HLA B*5801 = HLA B*5801 (Homo sapiens, UniProt P01889, A329T/C349S/D201E/D98Y/E176V/E187L/E204Q/E69T/G107R/I218V/I90N/K202T/L105A/L119I/N104I/N87E/Q89R/Q94S/R106L/R155S/R180L/R86G/S101N/S121R/S35A/S48A/T118I/V127L/V306I/V36M/Y140S/Y91M); assay type: binding
HLA B*0801 = HLA B*0801 (Homo sapiens, UniProt P01889, A93T/A95T/D138N/E176V/E187T/K202T/Q94N/R180D/S35A/V36M/Y33D/Y91F); test: biochemical; assay type: binding
H-2 D^b = H-2 D^b (Mus musculus, UniProt P01899); assay type: binding
HLA A*3001 = HLA A*3001 (Homo sapiens, UniProt P04439, D140H/D185E/E176W/F33S/G80R/H175R/K168Q/R138E/R41S); test: biochemical; assay type: binding
HLA B*0702 = HLA B*0702 (Homo sapiens, UniProt P01889); assay type: binding; conditions: positional scanning combinatorial 9-mer library; normalized to 1.0 for the best residue at each position
H-2 D^d = H-2 D^d (Mus musculus, UniProt P01900); assay type: binding
HLA B*5101 = HLA B*5101 (Homo sapiens, UniProt P01889, A329T/A93T/A95T/C349S/D138N/D201E/D98Y/E187L/E204Q/E69T/G107R/I218V/K202T/L105A/L119W/N104I/Q94N/R106L/R155S/R180L/S101N/S121T/S35A/S48A/V306I/V36M/Y195H/Y91F); assay type: binding
HLA B*5802 = HLA B*5802 (Homo sapiens, UniProt P01889, A329T/C349S/D201E/D98Y/E176V/E187L/E204Q/E69T/G107R/I218V/I90N/K202T/L105A/N104I/N87E/Q89R/Q94S/R106L/R155S/R180L/R86G/S101N/S121W/S35A/S48A/V127L/V306I/V36M/Y140S/Y91M); assay type: binding
H-2 K^d = H-2 K^d (Mus musculus, UniProt P01902); assay type: binding
H-2 K^d, sequence (P01887 21-119): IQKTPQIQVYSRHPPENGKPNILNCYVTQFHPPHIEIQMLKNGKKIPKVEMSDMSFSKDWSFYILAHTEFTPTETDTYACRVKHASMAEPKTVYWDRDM
H-2 K^d, sequence (P01902 22-368): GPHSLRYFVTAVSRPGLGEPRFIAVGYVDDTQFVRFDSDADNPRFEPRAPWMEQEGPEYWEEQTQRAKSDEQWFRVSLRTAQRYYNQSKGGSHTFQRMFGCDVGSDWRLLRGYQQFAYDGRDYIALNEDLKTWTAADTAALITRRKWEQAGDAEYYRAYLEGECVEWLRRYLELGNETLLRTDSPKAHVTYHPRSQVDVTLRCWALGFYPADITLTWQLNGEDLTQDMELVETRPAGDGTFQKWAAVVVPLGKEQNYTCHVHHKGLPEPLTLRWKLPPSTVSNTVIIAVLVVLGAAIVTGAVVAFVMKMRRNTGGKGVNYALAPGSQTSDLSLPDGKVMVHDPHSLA

H-2 D^d, sequence (P01900 whole entry, looked up): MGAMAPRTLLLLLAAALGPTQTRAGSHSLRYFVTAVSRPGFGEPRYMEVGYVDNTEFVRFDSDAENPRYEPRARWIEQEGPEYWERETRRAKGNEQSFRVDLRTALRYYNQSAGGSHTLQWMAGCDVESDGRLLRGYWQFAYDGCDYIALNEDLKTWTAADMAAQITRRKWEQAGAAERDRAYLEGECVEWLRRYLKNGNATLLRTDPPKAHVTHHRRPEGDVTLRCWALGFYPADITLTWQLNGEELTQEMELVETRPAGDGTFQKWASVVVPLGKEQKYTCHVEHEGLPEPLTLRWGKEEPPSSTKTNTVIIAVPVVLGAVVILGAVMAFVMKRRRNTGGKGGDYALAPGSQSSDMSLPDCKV
H-2 D^b, sequence (P01887 21-119): as the sequence (P01887 21-119) above
H-2 D^b, sequence (P01899 25-362): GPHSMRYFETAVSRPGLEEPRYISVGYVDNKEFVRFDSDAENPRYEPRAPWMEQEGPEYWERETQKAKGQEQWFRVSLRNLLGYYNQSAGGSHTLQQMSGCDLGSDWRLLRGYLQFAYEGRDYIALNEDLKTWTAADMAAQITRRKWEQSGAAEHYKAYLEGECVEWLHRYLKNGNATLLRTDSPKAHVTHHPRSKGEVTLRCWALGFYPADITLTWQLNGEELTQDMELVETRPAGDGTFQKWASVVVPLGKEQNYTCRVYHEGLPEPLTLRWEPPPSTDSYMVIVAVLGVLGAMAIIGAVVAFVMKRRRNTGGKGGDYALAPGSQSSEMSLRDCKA
H-2 K^k, sequence (P01887 21-119): as the sequence (P01887 21-119) above
H-2 K^k, sequence (P04223 22-369): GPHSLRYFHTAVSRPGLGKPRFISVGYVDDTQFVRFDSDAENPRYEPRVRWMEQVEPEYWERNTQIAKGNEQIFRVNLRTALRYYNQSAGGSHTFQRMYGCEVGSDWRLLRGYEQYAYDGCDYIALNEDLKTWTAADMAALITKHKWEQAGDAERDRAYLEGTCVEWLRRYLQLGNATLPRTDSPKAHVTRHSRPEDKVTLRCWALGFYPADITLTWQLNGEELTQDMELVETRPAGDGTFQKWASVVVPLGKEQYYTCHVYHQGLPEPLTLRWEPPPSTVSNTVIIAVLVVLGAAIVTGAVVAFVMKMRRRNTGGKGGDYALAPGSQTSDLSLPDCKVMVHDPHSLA

Sequence | Normalized average relative binding affinity (ARB), HLA B*5401 (HLA B*5401) | Normalized average relative binding affinity (ARB), HLA B*5301 (HLA B*5301) | Normalized average relative binding affinity (ARB), HLA B*1501 (HLA B*1501) | Normalized average relative binding affinity (ARB), HLA A*3201 (HLA A*3201) | Normalized average relative binding affinity (ARB), HLA B*2705 (HLA B*2705) | Normalized average relative binding affinity (ARB), H-2 Kk (H-2 K^k) | Normalized average relative binding affinity (ARB), HLA A*0201 (HLA A*0201) | Normalized average relative binding affinity (ARB), HLA A*6802 (HLA A*6802) | Normalized average relative binding affinity (ARB), HLA B*3501 (HLA B*3501) | Normalized average relative binding affinity (ARB), HLA B*1503 (HLA B*1503) | Normalized average relative binding affinity (ARB), HLA B*5801 (HLA B*5801) | Normalized average relative binding affinity (ARB), HLA B*0801 (HLA B*0801) | Normalized average relative binding affinity (ARB), H-2 Db (H-2 D^b) | Normalized average relative binding affinity (ARB), HLA A*3001 (HLA A*3001) | Normalized average relative binding affinity (ARB), HLA B*0702 (HLA B*0702) | Normalized average relative binding affinity (ARB), H-2 Dd (H-2 D^d) | Normalized average relative binding affinity (ARB), HLA B*5101 (HLA B*5101) | Normalized average relative binding affinity (ARB), HLA B*5802 (HLA B*5802) | Normalized average relative binding affinity(ARB) (HLA B*5401) | Normalized average relative binding affinity(ARB) (HLA B*5301) | other results
AXXXXXXXX [3064.0001] | 0.014 | 0.0057 | 0.31 | 0.36 | 0.35 | 0.18 | 0.11 | 0.031 | 0.042 | 0.47 | 0.33 | 0.11 | 0.14 | 0.18 | 0.78 | 0.20 | 0.071 | 0.065 | – | – | –
CXXXXXXXX [3064.0002] | 0.027 | 0.061 | 0.19 | 0.11 | 0.11 | 0.51 | 0.032 | 0.13 | 0.19 | 0.20 | 0.18 | 0.16 | 0.16 | 0.097 | 0.19 | 0.26 | 0.19 | 0.048 | – | – | –
DXXXXXXXX [3064.0003] | 0.050 | 0.028 | 0.042 | 0.031 | 0.022 | 0.43 | 0.0078 | 0.21 | 0.11 | 0.016 | 0.013 | 0.13 | 0.033 | 0.0069 | 0.021 | 0.059 | 0.27 | 0.068 | – | – | –
EXXXXXXXX [3064.0004] | 0.040 | 0.021 | 0.16 | 0.12 | 0.089 | 0.77 | 0.015 | 1.0 | 0.085 | 0.090 | 0.032 | 0.36 | 0.030 | 0.018 | 0.069 | 0.16 | 0.10 | 0.066 | – | – | –
XXXXYXXXX [3064.0100] | – | – | – | – | – | – | – | – | – | – | – | – | – | – | – | – | – | – | 0.084 | 0.087 | Normalized average relative binding affinity(ARB) (HLA B*1501): 0.95; Normalized average relative binding affinity(ARB) (H-2 K^d): 0.015; Normalized average relative binding affinity(ARB) (HLA A*3201): 0.28; Normalized average relative binding affinity(ARB) (H-2 K^k): 0.14; Normalized average relative binding affinity(ARB) (HLA A*6802): 0.27; Normalized average relative binding affinity(ARB) (HLA B*3501): 0.22; Normalized average relative binding affinity(ARB) (HLA B*1503): 0.34; Normalized average relative binding affinity(ARB) (HLA B*5801): 0.33; Normalized average relative binding affinity(ARB) (HLA B*0801): 0.064; Normalized average relative binding affinity(ARB) (H-2 D^b): 0.013; Normalized average relative binding affinity(ARB) (HLA A*3001): 0.21; Normalized average relative binding affinity(ARB) (H-2 D^d): 0.24; Normalized average relative binding affinity(ARB) (HLA B*5101): 0.26; Normalized average relative binding affinity(ARB) (HLA B*5802): 0.62
XXXYXXXXX [3064.0080] | – | – | – | – | – | – | – | – | – | – | – | – | – | – | – | – | – | – | 0.26 | 0.29 | Normalized average relative binding affinity(ARB) (HLA B*1501): 0.41; Normalized average relative binding affinity(ARB) (H-2 K^d): 0.14; Normalized average relative binding affinity(ARB) (HLA A*3201): 0.71; Normalized average relative binding affinity(ARB) (H-2 K^k): 0.24; Normalized average relative binding affinity(ARB) (HLA A*6802): 0.44; Normalized average relative binding affinity(ARB) (HLA B*3501): 0.085; Normalized average relative binding affinity(ARB) (HLA B*1503): 0.55; Normalized average relative binding affinity(ARB) (HLA B*5801): 0.27; Normalized average relative binding affinity(ARB) (HLA B*0801): 0.59; Normalized average relative binding affinity(ARB) (H-2 D^b): 0.63; Normalized average relative binding affinity(ARB) (HLA A*3001): 0.42; Normalized average relative binding affinity(ARB) (H-2 D^d): 1.0; Normalized average relative binding affinity(ARB) (HLA B*5101): 0.88; Normalized average relative binding affinity(ARB) (HLA B*5802): 0.49

Source: PMC2248166, “Quantitative peptide binding motifs for 19 human and mouse MHC class I molecules derived using positional scanning combinatorial peptide libraries” (Immunome Research, 2008)
